Source: US5140014A (Abbott Laboratories, priority 1989, dated 1992)
Converted amounts (≈) assume the structure as drawn. Where two headings read alike, the source gives them in different places.

Legend:
Assay in all cases: in vitro antibacterial activity, agar dilution method (MIC)
Type in all cases: cell-based
Escherichia Coli = conditions: BHI agar, 20-24 hours
Protocol: (§1) Compounds 1 to 8 were evaluated for antibacterial activity by the agar dilution method to determine the degree of in vitro susceptibility of aerobic microorganisms to antimicrobial agents. The test medium was Brain Heart Infusion (BHI) agar. The antibacterial agent was dissolved at a concentration of 2,000 ug/mL. Test plates were then prepared, usually 12 two-fold dilutions. After adding the sample to the plates, 10 mL of cooled BHI agar medium was added to each plate. The organisms were grown overnight in BHI broth (Difco) in a 35°-37° C. incubator.
(§2) On the day of testing, the bacterial suspensions were diluted 1:100 in sterile distilled water, except for a few slow-growing organisms (usually Micrococcus and Streptococcus) which were diluted 1:10. The plate was then inoculated with approximately 10^4 organisms. This was incubated in a 35°-37° C. incubator for 20-24 hours. Thereafter, the plates were read to determine the minimum inhibitory concentration (MIC) defined as the lowest concentration of drug yielding no growth on the plate, a slight haze, or sparsely isolated colonies on the inoculum spot as compared to the growth control.

Pseudomonas Cepacia = conditions: strain 296I, BHI agar, 20-24 hours
Protocol: as §1, §2

Enterococcus Faecium = conditions: BHI agar, 20-24 hours
Protocol: (§3) The test medium was Brain Heart Infusion (BHI) agar. The antibacterial agent was dissolved at a concentration of 2,000 ug/mL. Test plates were then prepared, usually 12 two-fold dilutions. After adding the sample to the plates, 10 mL of cooled BHI agar medium was added to each plate. The organisms were grown overnight in BHI broth (Difco) in a 35°-37° C. incubator.
as §2

Pseudomonas Aeruginosa = conditions: BHI agar, 20-24 hours
Protocol: as §3, §2

Acinetobacter Sp = conditions: strain CMX 669, BHI agar, 20-24 hours
Protocol: as §3, §2

Enterobacter Aerogenes = conditions: BHI agar, 20-24 hours
Protocol: as §3, §2

Providencia Stuartii = conditions: strain CMX 640, BHI agar, 20-24 hours
Protocol: as §3, §2

Streptococcus Bovis = conditions: strain A5169; BHI agar, 20-24 hours
Protocol: as §3, §2

Streptococcus Pyogenes = conditions: BHI agar, 20-24 hours
Protocol: as §3, §2

[1] = system: Staphylococcus Epidermidis; conditions: strain 3519, BHI agar, 20-24 hours
Protocol: as §3, §2

Micrococcus Luteus = conditions: BHI agar, 20-24 hours
Protocol: as §3, §2

Streptococcus Agalactiae = conditions: strain CMX 508, BHI agar, 20-24 hours
Protocol: as §3, §2

Haemophilus Influenzae = conditions: BHI agar, 20-24 hours
Protocol: as §3, §2

Staphylococcus Aureus = system: Staphylococcus Aureus
Protocol: as §3, §2

Klebsiella Pneumoniae = conditions: BHI agar, 20-24 hours
Protocol: as §3, §2

[2] = Haemophilus influenzae, strain 588A, read-out: MIC

## CCC1OC(=O)CC(O)C(C)C(OC2OC(C)C(O)C(N(C)C)C2O)C(CC=O)CC(C)C(N(C)C)CCC(C)=CC1COC(C)=O (stereo not shown) [Example 7, [9S]-23-O-Acetyl-9-deoxo-10,11-dihydro-9-N,N-dimethylamino-5-O-mycaminosyl-tylonide]
Escherichia Coli; strain DC-2
  MIC: 50 µg/mL (≈ 74.5 µM)
Escherichia Coli; strain H560
  MIC: 12.5 µg/mL (≈ 18.6 µM)
Escherichia Coli; strain JUHL
  MIC: 100 µg/mL (≈ 149 µM)
Escherichia Coli; strain KNK 437
  MIC: 50 µg/mL (≈ 74.5 µM)
Escherichia Coli; strain SS
  MIC: 0.78 µg/mL (≈ 1.16 µM)
Pseudomonas Cepacia
  MIC: > 100 µg/mL
Enterococcus Faecium; strain ATCC 8043
  MIC: 1.56 µg/mL (≈ 2.33 µM)
Pseudomonas Aeruginosa; strain A5007
  MIC: > 100 µg/mL
Pseudomonas Aeruginosa; strain BMH10
  MIC: 100 µg/mL (≈ 149 µM)
Pseudomonas Aeruginosa; strain K799/61
  MIC: 3.1 µg/mL (≈ 4.62 µM)
Pseudomonas Aeruginosa; strain K799/WT
  MIC: > 100 µg/mL
Acinetobacter Sp
  MIC: 50 µg/mL (≈ 74.5 µM)
Enterobacter Aerogenes; strain ATCC 13048
  MIC: > 100 µg/mL
Providencia Stuartii
  MIC: > 100 µg/mL
Streptococcus Bovis
  MIC: 0.1 µg/mL (≈ 0.149 µM)
Streptococcus Pyogenes; strain 930 CONST
  MIC: > 100 µg/mL
Streptococcus Pyogenes; strain 2548 INDUC
  MIC: 1.56 µg/mL (≈ 2.33 µM)
Streptococcus Pyogenes; strain EES61
  MIC: 0.78 µg/mL (≈ 1.16 µM)
[1]
  MIC: 1.56 µg/mL (≈ 2.33 µM)
Micrococcus Luteus; strain ATCC 4698
  MIC: 1.56 µg/mL (≈ 2.33 µM)
Micrococcus Luteus; strain ATCC 9341
  MIC: 0.78 µg/mL (≈ 1.16 µM)
Streptococcus Agalactiae
  MIC: 0.39 µg/mL (≈ 0.581 µM)
Haemophilus Influenzae; [2]
  MIC: 4 µg/mL (≈ 5.96 µM)
Haemophilus Influenzae; strain 503B
  MIC: 2 µg/mL (≈ 2.98 µM)
Haemophilus Influenzae; strain 519A
  MIC: 1 µg/mL (≈ 1.49 µM)
Haemophilus Influenzae; strain 566A
  MIC: 4 µg/mL (≈ 5.96 µM)
Haemophilus Influenzae; strain 747C
  MIC: 4 µg/mL (≈ 5.96 µM)
Haemophilus Influenzae; strain 751
  MIC: 16 µg/mL (≈ 23.8 µM)
Haemophilus Influenzae; strain 1177
  MIC: 0.5 µg/mL (≈ 0.745 µM)
Haemophilus Influenzae; strain 1435
  MIC: 4 µg/mL (≈ 5.96 µM)
Haemophilus Influenzae; strain ATCC 9795
  MIC: 4 µg/mL (≈ 5.96 µM)
Haemophilus Influenzae; strain ATCC 10211
  MIC: 4 µg/mL (≈ 5.96 µM)
Haemophilus Influenzae; strain ATCC 19418
  MIC: 4 µg/mL (≈ 5.96 µM)
Haemophilus Influenzae; strain ATCC 43095
  MIC: 2 µg/mL (≈ 2.98 µM)
Haemophilus Influenzae; strain DILL AMP R
  MIC: 4 µg/mL (≈ 5.96 µM)
Haemophilus Influenzae; strain SOL AMP R
  MIC: 4 µg/mL (≈ 5.96 µM)
Haemophilus Influenzae; strain SPK AMP R
  MIC: 4 µg/mL (≈ 5.96 µM)
Staphylococcus Aureus; strain 45, BHI agar, 20-24 hours
  MIC: 3.1 µg/mL (≈ 4.62 µM)
Staphylococcus Aureus; strain 45 RAR2, BHI agar, 20-24 hours
  MIC: 6.2 µg/mL (≈ 9.24 µM)
Staphylococcus Aureus; strain 642A, BHI agar, 20-24 hours
  MIC: 6.2 µg/mL (≈ 9.24 µM)
Staphylococcus Aureus; strain A5177, BHI agar, 20-24 hours
  MIC: 6.2 µg/mL (≈ 9.24 µM)
Staphylococcus Aureus; strain ATCC 6538P, BHI agar, 20-24 hours
  MIC: 6.2 µg/mL (≈ 9.24 µM)
Staphylococcus Aureus; strain CMX 553, BHI agar, 20-24 hours
  MIC: 6.2 µg/mL (≈ 9.24 µM)
Staphylococcus Aureus; strain NCTC 10649, BHI agar, 20-24 hours
  MIC: 6.2 µg/mL (≈ 9.24 µM)
Klebsiella Pneumoniae; strain ATCC 8045
  MIC: 100 µg/mL (≈ 149 µM)

## CC[C@H]1OC(=O)C[C@@H](O)[C@H](C)[C@@H](O[C@@H]2O[C@H](C)C[C@H](N(C)C)[C@H]2O)[C@@H](CC=O)C[C@@H](C)C(=O)/C=C/[C@]2(C)O[C@H]2[C@@H]1C [Rosaramicin, 5-O-(4'-deoxy-mycaminosyl)-12,13-epoxy-23-deoxy-tylonide, reference compound]
Escherichia Coli; Escherichia coli, strain DC-2, read-out: MIC
  MIC: 12.5 µg/mL (≈ 21.5 µM)
Escherichia Coli; Escherichia coli, strain H560, read-out: MIC
  MIC: 6.2 µg/mL (≈ 10.7 µM)
Escherichia Coli; Escherichia coli, strain JUHL, read-out: MIC
  MIC: 12.5 µg/mL (≈ 21.5 µM)
Escherichia Coli; Escherichia coli, strain KNK 437, read-out: MIC
  MIC: 25 µg/mL (≈ 43 µM)
Escherichia Coli; Escherichia coli, strain SS, read-out: MIC
  MIC: 0.2 µg/mL (≈ 0.344 µM)
Pseudomonas Cepacia; Burkholderia cepacia, read-out: MIC
  MIC: 25 µg/mL (≈ 43 µM)
Enterococcus Faecium; Enterococcus faecium, ATCC8043, strain ATCC 8043, read-out: MIC
  MIC: 0.39 µg/mL (≈ 0.67 µM)
Pseudomonas Aeruginosa; Pseudomonas aeruginosa, strain A5007, read-out: MIC
  MIC: 100 µg/mL (≈ 172 µM)
Pseudomonas Aeruginosa; Pseudomonas aeruginosa, strain BMH10, read-out: MIC
  MIC: 50 µg/mL (≈ 85.9 µM)
Pseudomonas Aeruginosa; Pseudomonas aeruginosa, strain K799/61, read-out: MIC
  MIC: 0.78 µg/mL (≈ 1.34 µM)
Pseudomonas Aeruginosa; Pseudomonas aeruginosa, strain K799/WT, read-out: MIC
  MIC: 25 µg/mL (≈ 43 µM)
Acinetobacter Sp; Acinetobacter, read-out: MIC
  MIC: 12.5 µg/mL (≈ 21.5 µM)
Enterobacter Aerogenes; Klebsiella aerogenes, ATCC13048, strain ATCC 13048, read-out: MIC
  MIC: 25 µg/mL (≈ 43 µM)
Providencia Stuartii; Providencia stuartii, read-out: MIC
  MIC: 100 µg/mL (≈ 172 µM)
Streptococcus Pyogenes; Streptococcus pyogenes, strain 930 CONST, read-out: MIC
  MIC: > 100 µg/mL
Streptococcus Pyogenes; Streptococcus pyogenes, strain 2548 INDUC, read-out: MIC
  MIC: 0.39 µg/mL (≈ 0.67 µM)
Streptococcus Pyogenes; Streptococcus pyogenes, strain EES61, read-out: MIC
  MIC: 0.1 µg/mL (≈ 0.172 µM)
[1]; Staphylococcus epidermidis, read-out: MIC
  MIC: 0.39 µg/mL (≈ 0.67 µM)
Micrococcus Luteus; Micrococcus luteus, ATCC4698, strain ATCC 4698, read-out: MIC
  MIC: 0.1 µg/mL (≈ 0.172 µM)
Streptococcus Agalactiae; Streptococcus agalactiae, read-out: MIC
  MIC: 0.2 µg/mL (≈ 0.344 µM)
Haemophilus Influenzae; Haemophilus influenzae, ATCC9795, strain ATCC 9795
  MIC: 1 µg/mL (≈ 1.72 µM)
Haemophilus Influenzae; Haemophilus influenzae, ATCC10211, strain ATCC 10211, read-out: MIC
  MIC: 0.5 µg/mL (≈ 0.859 µM)
Haemophilus Influenzae; Haemophilus influenzae, ATCC19418, strain ATCC 19418
  MIC: 1 µg/mL (≈ 1.72 µM)
Haemophilus Influenzae; Haemophilus influenzae, ATCC43095, strain ATCC 43095, read-out: MIC
  MIC: 0.5 µg/mL (≈ 0.859 µM)
Haemophilus Influenzae; Haemophilus influenzae, strain 503B
  MIC: 1 µg/mL (≈ 1.72 µM)
Haemophilus Influenzae; Haemophilus influenzae, strain 504
  MIC: 1 µg/mL (≈ 1.72 µM)
Haemophilus Influenzae; Haemophilus influenzae, strain 519A, read-out: MIC
  MIC: 0.5 µg/mL (≈ 0.859 µM)
Haemophilus Influenzae; Haemophilus influenzae, strain 566A
  MIC: 1 µg/mL (≈ 1.72 µM)
Haemophilus Influenzae; [2]
  MIC: 0.5 µg/mL (≈ 0.859 µM)
Haemophilus Influenzae; Haemophilus influenzae, strain 632A
  MIC: 1 µg/mL (≈ 1.72 µM)
Haemophilus Influenzae; Haemophilus influenzae, strain 667A
  MIC: 1 µg/mL (≈ 1.72 µM)
Haemophilus Influenzae; Haemophilus influenzae, strain 747C, read-out: MIC
  MIC: 0.5 µg/mL (≈ 0.859 µM)
Haemophilus Influenzae; Haemophilus influenzae, strain 751
  MIC: 1 µg/mL (≈ 1.72 µM)
Haemophilus Influenzae; Haemophilus influenzae, strain 1177, read-out: MIC
  MIC: 0.12 µg/mL (≈ 0.206 µM)
Haemophilus Influenzae; Haemophilus influenzae, strain 1435, read-out: MIC
  MIC: 0.5 µg/mL (≈ 0.859 µM)
Haemophilus Influenzae; Haemophilus influenzae, strain DILL AMP R, read-out: MIC
  MIC: 0.5 µg/mL (≈ 0.859 µM)
Haemophilus Influenzae; Haemophilus influenzae, strain SOL AMP R, read-out: MIC
  MIC: 0.5 µg/mL (≈ 0.859 µM)
Haemophilus Influenzae; Haemophilus influenzae, strain SPK AMP R, read-out: MIC
  MIC: 0.5 µg/mL (≈ 0.859 µM)
Staphylococcus Aureus; Staphylococcus aureus, ATCC6538P
  MIC: 0.39 µg/mL (≈ 0.67 µM)
Staphylococcus Aureus; Staphylococcus aureus, NCTC10649, strain NCTC 10649, BHI agar, 20-24 hours, read-out: MIC
  MIC: 0.39 µg/mL (≈ 0.67 µM)
Staphylococcus Aureus; Staphylococcus aureus, strain 45, BHI agar, 20-24 hours, read-out: MIC
  MIC: 0.39 µg/mL (≈ 0.67 µM)
Staphylococcus Aureus; Staphylococcus aureus, strain 45 RAR2, BHI agar, 20-24 hours, read-out: MIC
  MIC: 0.39 µg/mL (≈ 0.67 µM)
Staphylococcus Aureus; Staphylococcus aureus, strain 642A, BHI agar, 20-24 hours, read-out: MIC
  MIC: 0.39 µg/mL (≈ 0.67 µM)
Staphylococcus Aureus; Staphylococcus aureus, strain A5177, BHI agar, 20-24 hours, read-out: MIC
  MIC: 0.78 µg/mL (≈ 1.34 µM)
Staphylococcus Aureus; Staphylococcus aureus, strain CMX 553, BHI agar, 20-24 hours, read-out: MIC
  MIC: 0.39 µg/mL (≈ 0.67 µM)
Klebsiella Pneumoniae; Klebsiella pneumoniae, ATCC8045, strain ATCC 8045, read-out: MIC
  MIC: 12.5 µg/mL (≈ 21.5 µM)
